One data set deals with melanin of B16-F10 cells. The experiment in a line: Melanin content assay in situ. The data set is classed as cell-based. The note with it: for inhibition of melanin of B16-F10 cells: three days, nicotinyl hydroxamic acid 10, 20, 40, 60 μM. As to the method:
Melanin Content Assay In Situ
B16-F10 cells (1×10^5) were placed on a 60 mm culture dish. The nicotinyl hydroxamic acid and the N-methyl nicotinic acid hydroxamate iodide with various concentrations were respectively added and cultivated for three days in a culture box. After removal of the upper clean solution, the cells were washed two times using a PBS. The melanin was dissolved by 1N NaOH (90° C., 30 minutes). The melanin content was then measured (405 nm).

For data set [1], the system named is melanin content in B16-F10 cells. The experiment in a line: Melanin content in B16-F10 cells with ERK and AKT pathway inhibitors. Type of data set: cell-based. An excerpt: The mechanism of inhibition of melanogenesis by nicotinyl hydroxamic acid in B16-F10 cells is further described as follows. ERK and AKT/[…] pathways participate in melanogenesis. PD98059, a MEK selective inhibitor, inhibits the activity of ERK (ERK is activated by MEK). LY294002, a phosphatidylinositol 3-kinase (PI3K) inhibitor, blocks the AKT/PKB pathway. The two inhibitors are used to determine the participation of nicotinyl hydroxamic acid in the ERK and AKT/PKA pathways. […] However, when nicotinyl hydroxamic acid is simultaneously added, the inhibition of melanin thereby is reduced by PD98059 and LY294002.

In data set [2] the test system is polyphenol oxidase in the apple juice. Put plainly: Polyphenol oxidase inhibition assay in apple juice. The data set is classed as biochemical. The note with it: 5 to 200 μM; absorbance at 420 nm within two hours. How it is done:
Polyphenol Oxidase Inhibition Assay
Apples were purchased from local supermarkets. 100 g of apples were peeled, cored and sliced prior to juicing in a blender. The preparation was with 100 ml distilled water filtered through swab and collected by centrifugation 12,000 rpm for 10 min at 4° C. The apple juice obtained was immediately collected 200 μl in a 96 well microplate and mixed nicotinyl hydroxamic acid and N-methyl nicotinic acid hydroxamate iodide (5-200 μM).

For a further data set, the system named is tyrosinase. The experiment in a line: Western blot of B16-F10 cells: tyrosinase. Type of data set: cell-based. The following applies: B16-F10 cells treated 24 hours. How it is done: (§1) After using nicotinyl hydroxamic acid to treat B16-F10 cells for 24 hours, proteins are extracted and analyzed using the western blot method. The contents of tyrosinase and TRP-1 are reduced as the concentration of nicotinyl hydroxamic acid is increased.
In general terms: In western blotting, separated proteins are transferred to a membrane and probed.

Data set [3] has as its system tyrosinase activity of B16-F10 cells. Put plainly: Tyrosinase activity assay in situ. The data set is classed as cell-based. The following applies: three days. How it is done:
Tyrosinase Activity Assay In Situ
B16-F10 cells (1×10^5) were placed on a 60 mm culture dish. After 12 hours, an adherent monolayer was formed on the bottom of the culture dish. After removal of the used culture medium, a fresh culture medium was added. A sample solution with various concentrations and/or 50 nM melanocytes stimulating hormone (MSH) were then added and cultivated at 37° C. for three days. After removal of the upper clean solution, the cells were washed two times using a PBS. After the cells were scraped away, protein was extracted and quantitated. One hundred μl of a phosphate buffer (250 mM, pH 6.5), 50 μl of a L-DOPA (10 mM) and 50 μl of a cell extract were sequentially added to a 96-well plate, uniformly mixed and reacted in a 37° C. culture box. The absorption of the result was then measured by an ELISA reader (475 nm).

In another data set the test system is p-ERK. The experiment in a line: Western blot of B16-F10 cells: p-ERK. Type of data set: cell-based. An excerpt:
(§2) Additionally, according to the analytical results obtained using the western blot method, it was shown that the expression of p-ERK, p-MEK and p-AKT is increased as the concentration of nicotinyl hydroxamic acid is increased. Thus, in addition to inhibition of tyrosinase and adjustment of MITF, nicotinyl hydroxamic acid also reduces the melanin content in cells through ERK and AKT/PKB pathways.

A further data set relates to TRP-1. The experiment in a line: Western blot of B16-F10 cells: TRP-1. Type of data set: cell-based. The note with it: B16-F10 cells treated 24 hours. How it is done:
as §1

The test system of the next data set is MITF. The experiment in a line: Western blot of B16-F10 cells: MITF. Type of data set: cell-based. How it is done:
as §1
Microphthalmia-associated transcription factor (MITF) is a transcription factor controlling tyrosinase and TRP-1 expression in cells, with a helix-loop-helix leucine zipper structure, capable of regulation of melanogenesis and survival and proliferation of melanocytes.

For a further data set, the system named is melanoma cells (B16-F10). Put plainly: Cell viability assay (MTT), melanoma cells. Type of data set: cell-based. The following applies: 24 hours; for cell toxicity to melanoma cells (B16-F10): under effective concentration to inhibit melanin. As to the method:
(§3) The culture medium was removed from the culture dish filled with cells. The cells were washed using 10 ml of a PBS. The number of the cells was counted by a blood cell counter and diluted to a proper cell concentration. 500 µl/well of the result was added to a 24-well culture plate and cultivated in a 37° C. culture box with 5% CO2 and mist until the cells were stuck on the bottom of the culture dish. After removal of the used culture medium, a fresh drug-containing culture medium with various concentrations was added (the drug was directly added when cells were suspended) and cultivated for 24 hours in a 37° C. culture box with 5% CO2 and mist. After removal of the upper clean solution, the cells were washed two times using a PBS. An MTT solution (500 μg/ml) prepared from the medium was then added to the well and reacted for 4-6 hours in a 37° C. culture box. After removal of the upper clean solution, 100 μl of a DMSO was added until a formazan crystal was dissolved. The absorption of the result was then measured by an ELISA reader (600 nm).

In another data set the test system is TRP-2. The experiment in a line: Western blot of B16-F10 cells: TRP-2. The data set is classed as cell-based. The following applies: B16-F10 cells treated 24 hours.
A further data set deals with p-MEK. The experiment in a line: Western blot of B16-F10 cells: p-MEK. The data set is classed as cell-based.
Text: as §2

The test system of the next data set is human melanocytes. The experiment in a line: Cell viability assay (MTT), human melanocytes. The data set is classed as cell-based. The following applies: 24 hours. As to the method: as §3
The subject of the next data set is p-AKT. The experiment in a line: Western blot of B16-F10 cells: p-AKT. The data set is classed as cell-based.
Text: as §2

The mark [4] stands for this setting: concentration increased to 5 mM.

Each structure is given as a SMILES string.

For the molecule `O=c1cc(CO)occ1O` [kojic acid, reference compound], the “concentration added to achieve the same inhibition effect on melanin content” value with melanin of B16-F10 cells (MSH added) and with melanin of B16-F10 cells (no MSH added) was 1.5 mM in each case.

As to `COc1cccc(-c2cc(=O)c3ccccc3o2)c1N` [PD98059, reference compound], the “effect on melanin content in cells” value in data set [1] (inhibitor added) was “increases melanin content”.

With `O=C(NO)c1cccnc1` [nicotinyl hydroxamic acid], in data set [2], the “inhibition of polyphenol oxidase in the apple juice” value is “effectively inhibited”. For the same molecule, the “content of tyrosinase as concentration is increased” value with tyrosinase was “reduced”. The “tyrosinase activity of B16-F10 cells as concentration was increased” value in [3] (MSH added (50 nM)) and in data set [3] (no MSH added) was “decreased” throughout. For the same molecule, the “expression of p-ERK as concentration is increased” value with p-ERK is recorded as “increased”. Also, the “concentration added to achieve the same inhibition effect on melanin content” value with melanin of B16-F10 cells (MSH added) was found to be 0.04 mM; in the data set with melanin of B16-F10 cells (no MSH added), 0.06 mM. Moreover, the “inhibition of melanin of B16-F10 cells” value in the data set on melanin of B16-F10 cells (MSH added) and in the data set with melanin of B16-F10 cells (MSH not added) was “effectively inhibited” each time. The “content of TRP-1 as concentration is increased” value in the data set on TRP-1 was “reduced”. Also, the “inhibition of melanin when PD98059 and LY294002 are simultaneously added” value in [1] (with PD98059 and LY294002) is on record as “reduced”. In the data set on MITF, the “content of MITF as concentration is increased” value is listed as “reduced”. The “cell toxicity to melanoma cells (B16-F10)” value in the data set on melanoma cells (B16-F10) is on record as “low cell toxicity”. Also, the “content of TRP-2 versus concentration” value with TRP-2 was “irrelevant to the concentration”. The “expression of p-MEK as concentration is increased” value in the data set with p-MEK is on record as “increased”. Besides, the “viability of human melanocytes” value in the data set on human melanocytes (concentration increased to 1 mM) was “still alive”. For the same molecule, in the data set with p-AKT, the “expression of p-AKT as concentration is increased” value is recorded as “increased”.

Consider `C[n+]1cccc(C(=O)NO)c1` [N-methyl nicotinic acid hydroxamate iodide], for which the “inhibition of polyphenol oxidase in the apple juice” value in data set [2] was “effectively inhibited”. Further, the “tyrosinase activity of B16-F10 cells as concentration was increased” value in data set [3] (MSH added (50 nM)) and in data set [3] (no MSH added) was “decreased” in each case. In addition, the “inhibition of melanin of B16-F10 cells” value with melanin of B16-F10 cells (MSH added) and in the data set with melanin of B16-F10 cells (MSH not added) was “achieved the same effects” each time. Further, the “viability of B16-F10 melanoma cells” value with melanoma cells (B16-F10) (setting [4]) is recorded as “still alive”. In the data set on melanoma cells (B16-F10), the “cell toxicity to melanoma cells (B16-F10)” value is “low cell toxicity”. Besides, in the data set on human melanocytes (setting [4]), the “viability of human melanocytes” value is recorded as “still alive”.
